Reference: patent publication US11951108B2, “Combination therapy for treating cancer” (Epizyme, Inc., priority 2016, dated 2024)

Columns and labels:
JH)S-4 = experiment: In vitro combination study, ovarian cancer cell line JH)S-4; details: 20 μM
BT549 = experiment: In vitro combination study, breast cancer cell line BT549; details: 10 μM
COV362 = experiment: In vitro combination study, ovarian cancer cell line COV362
ES-2 = experiment: In vitro combination study, ovarian cancer cell line ES-2
HCC1569 = experiment: In vitro combination study, breast cancer cell line HCC1569
RMUGS* = experiment: In vitro combination study, ovarian cancer cell line RMUGS; details: 20 μM
KURAMOCHI = experiment: In vitro combination study, ovarian cancer cell line KURAMOCHI; details: read-out: Tazemetostat % inhibition at 20 μM
OVCAR-3 = experiment: In vitro combination study, ovarian cancer cell line OVCAR-3; assay type: cell-based; details: Homo sapiens, read-out: Tazemetostat % inhibition at 20 μM
HCC1954 = experiment: In vitro combination study, breast cancer cell line HCC1954; assay type: cell-based
CAOV-3 = experiment: In vitro combination study, ovarian cancer cell line CAOV-3; assay type: cell-based; details: Homo sapiens, read-out: Tazemetostat % inhibition at 20 μM, 20 μM
SNU840 [1] = experiment: In vitro combination study, ovarian cancer cell line SNU840; details: SNU-840, read-out: Tazemetostat % inhibition at 20 μM
TOV21G = experiment: In vitro combination study, ovarian cancer cell line TOV21G; assay type: cell-based; details: Homo sapiens, read-out: Tazemetostat % inhibition at 20 μM, 20 μM
HCC1806 = experiment: In vitro combination study, breast cancer cell line HCC1806; assay type: cell-based
SUM1315MO2 = experiment: In vitro combination study, breast cancer cell line SUM1315MO2; assay type: cell-based
HCC1187 = experiment: In vitro combination study, breast cancer cell line HCC1187
A2780 = experiment: In vitro combination study, ovarian cancer cell line A2780; details: Homo sapiens, A2780, read-out: Tazemetostat % inhibition at 20 μM
MCF-7 = experiment: In vitro combination study, breast cancer cell line MCF-7; assay type: cell-based
SKOV3 = experiment: In vitro combination study, ovarian cancer cell line SKOV3; details: 20 μM
OVMANA [2] = experiment: In vitro combination study, ovarian cancer cell line OVMANA; details: read-out: Tazemetostat % inhibition at 20 μM
HCC38 = details: HCC38; 10 μM
COV504 [3] = experiment: cells; details: COV504, read-out: Tazemetostat % inhibition at 20 μM
MDA-MB-436 = experiment: In vitro combination study, breast cancer cell line MDA-MB-436; assay type: cell-based
OVISE [4] = experiment: In vitro combination study, ovarian cancer cell line OVISE; details: read-out: Tazemetostat % inhibition at 20 μM
OVSAHO = experiment: In vitro combination study, ovarian cancer cell line OVSAHO
BT-20 = experiment: In vitro combination study, breast cancer cell line BT-20
COV434 = experiment: cells; details: COV434, read-out: Tazemetostat % inhibition at 20 μM
OV-90 = experiment: In vitro combination study, ovarian cancer cell line OV-90; details: Homo sapiens, OV-90, read-out: Tazemetostat % inhibition at 20 μM
MDA-MB-175VII = experiment: In vitro combination study, breast cancer cell line MDA-MB-175VII
SUM159PT = experiment: In vitro combination study, breast cancer cell line SUM159PT; details: 10 μM
BT474 = experiment: In vitro combination study, breast cancer cell line BT474
MDA-MB-453 = experiment: In vitro combination study, breast cancer cell line MDA-MB-453; assay type: cell-based; details: 10 μM
MDA-MB-361 = experiment: In vitro combination study, breast cancer cell line MDA-MB-361; assay type: cell-based
CAMA-1 = experiment: In vitro combination study, breast cancer cell line CAMA-1; assay type: cell-based; details: 10 μM
COV644* = experiment: In vitro combination study, ovarian cancer cell line COV644
MDA-MB-468 = experiment: In vitro combination study, breast cancer cell line MDA-MB-468
TYK-NU = experiment: In vitro combination study, ovarian cancer cell line TYK-NU; assay type: cell-based; details: read-out: Tazemetostat % inhibition at 20 μM
DU4475 [5] = experiment: In vitro combination study, breast cancer cell line DU4475; details: 10 μM
HCC1143 [6] = experiment: In vitro combination study, breast cancer cell line HCC1143; details: 10 μM
MDA-MB-231 = experiment: In vitro combination study, breast cancer cell line MDA-MB-231
OAW42 = experiment: In vitro combination study, ovarian cancer cell line OAW42; details: Homo sapiens, OAW-42, read-out: Tazemetostat % inhibition at 20 μM
HCC1937 = experiment: In vitro combination study, breast cancer cell line HCC1937
HCC1419 = experiment: In vitro combination study, breast cancer cell line HCC1419; details: 10 μM
SK-BR-3 = experiment: In vitro combination study, breast cancer cell line SK-BR-3; assay type: cell-based
ZR-75-1 [7] = experiment: In vitro combination study, breast cancer cell line ZR-75-1
TOV112D [8] = experiment: In vitro combination study, ovarian cancer cell line TOV112D; details: 20 μM
SUM52PE = experiment: In vitro combination study, breast cancer cell line SUM52PE
COV504 [9] = test system: COV504
DU4475 [10] = test system: DU4475
SNU840 [11] = test system: SNU840
OVMANA [12] = test system: OVMANA
OVISE [13] = test system: OVISE
ZR-75-1 [14] = test system: ZR-75-1
TOV112D [15] = test system: TOV112D
HCC1143 [16] = test system: HCC1143
[17] = ER/PR −/−, HER2 −, 7 day pre-treatment + 6 day co-treatment
[18] = ER/PR +/+, HER2 +, 7 day pre-treatment + 6 day co-treatment

## CCN(c1cc(-c2ccc(CN3CCOCC3)cc2)cc(C(=O)NCc2c(C)cc(C)[nH]c2=O)c1C)C1CCOCC1 [Tazemetostat, tazemetostat]
JH)S-4
  Tazemetostat % inhibition at 20 μM: −20%
BT549
  Tazemetostat sensitivity at 10 μM (%): 40%
COV362; COV362, read-out: Tazemetostat % inhibition at 20 μM
  inhibition at 20 µM: 0%
ES-2; 20 μM
  Tazemetostat % inhibition at 20 μM: 0%
SUM149PT
  Tazemetostat sensitivity at 10 μM (%): 30%
HCC1569
  Tazemetostat sensitivity at 10 μM (%): 20%
RMUGS*
  Tazemetostat % inhibition at 20 μM: −20%
KURAMOCHI
  inhibition at 20 µM: 20%
OVCAR-3
  inhibition at 20 µM: 0%
HCC70
  Tazemetostat sensitivity at 10 μM (%): 35%
HCC1954
  Tazemetostat sensitivity at 10 μM (%): 0%
HCC1395
  Tazemetostat sensitivity at 10 μM (%): 25%
CAOV-3
  inhibition at 20 µM: 0%
SNU840 [1]
  inhibition at 20 µM: 25%
TOV21G
  inhibition at 20 µM: 40%
HCC1806
  Tazemetostat sensitivity at 10 μM (%): 40%
SUM1315MO2
  Tazemetostat sensitivity at 10 μM (%): 35%
HCC1187; 10 μM
  Tazemetostat sensitivity at 10 μM (%): 0%
A2780
  inhibition at 20 µM: 35%
MCF-7
  Tazemetostat sensitivity at 10 μM (%): 50%
SKOV3
  Tazemetostat % inhibition at 20 μM: 15%
EFM-19
  Tazemetostat sensitivity at 10 μM (%): 20%
OVMANA [2]
  inhibition at 20 µM: 20%
HCC38
  Tazemetostat sensitivity at 10 μM (%): 20%
COV504 [3]
  inhibition at 20 µM: 30%
MDA-MB-436
  Tazemetostat sensitivity at 10 μM (%): 10%
OVISE [4]
  inhibition at 20 µM: 0%
OVSAHO; Homo sapiens, read-out: Tazemetostat % inhibition at 20 μM
  inhibition at 20 µM: 0%
BT-20; 10 μM
  Tazemetostat sensitivity at 10 μM (%): 0%
COV434
  inhibition at 20 µM: 50%
OV-90
  inhibition at 20 µM: 15%
MDA-MB-175VII; 10 μM
  Tazemetostat sensitivity at 10 μM (%): 10%
MDA-MB-157
  Tazemetostat sensitivity at 10 μM (%): 0%
SUM159PT
  Tazemetostat sensitivity at 10 μM (%): 50%
BT474; 10 μM
  Tazemetostat sensitivity at 10 μM (%): 0%
MDA-MB-453
  Tazemetostat sensitivity at 10 μM (%): 40%
MDA-MB-361
  Tazemetostat sensitivity at 10 μM (%): 10%
HCC202
  Tazemetostat sensitivity at 10 μM (%): 0%
CAMA-1
  Tazemetostat sensitivity at 10 μM (%): 30%
COV644*; read-out: Tazemetostat % inhibition at 20 μM
  inhibition at 20 µM: 10%
MDA-MB-468
  Tazemetostat sensitivity at 10 μM (%): 30%
TYK-NU
  inhibition at 20 µM: 0%
DU4475 [5]
  Tazemetostat sensitivity at 10 μM (%): 35%
HCC1143 [6]
  Tazemetostat sensitivity at 10 μM (%): 0%
MDA-MB-231; 10 μM
  Tazemetostat sensitivity at 10 μM (%): 0%
OAW42
  inhibition at 20 µM: 15%
HCC1937; 10 μM
  Tazemetostat sensitivity at 10 μM (%): 20%
HCC1419
  Tazemetostat sensitivity at 10 μM (%): 0%
SK-BR-3
  Tazemetostat sensitivity at 10 μM (%): 70%
ZR-75-1 [7]
  Tazemetostat sensitivity at 10 μM (%): 40%
TOV112D [8]
  Tazemetostat % inhibition at 20 μM: 20%
SUM52PE; 10 μM
  Tazemetostat sensitivity at 10 μM (%): 50%

## CN(Cc1cnc2nc(N)nc(N)c2n1)c1ccc(C(=O)N[C@@H](CCC(=O)O)C(=O)O)cc1 [Methotrexate]
COV362; COV362, 4+3 model
  Synergy or antagonism of second agent with tazemetostat (IC50 shift of second agent): A (Antagonism)
COV504 [9]
  Synergy or antagonism of second agent with tazemetostat (IC50 shift of second agent): A (key: B: Synergy > 4× IC50 shift; Synergy > 2× IC50 shift; No Effect; Antagonism; X: Not Tested)
ES-2; 4+3 model
  Synergy or antagonism of second agent with tazemetostat (IC50 shift of second agent): A (Antagonism)
DU4475 [10]
  Synergy or antagonism of second agent with tazemetostat (IC50 shift of second agent): A (key: B: Synergy > 4× IC50 shift; Synergy > 2× IC50 shift; No Effect; Antagonism; X: Not Tested)
SNU840 [11]
  Synergy or antagonism of second agent with tazemetostat (IC50 shift of second agent): A (key: B: Synergy > 4× IC50 shift; Synergy > 2× IC50 shift; No Effect; Antagonism; X: Not Tested)
OVMANA [12]
  Synergy or antagonism of second agent with tazemetostat (IC50 shift of second agent): A (key: B: Synergy > 4× IC50 shift; Synergy > 2× IC50 shift; No Effect; Antagonism; X: Not Tested)
HCC1187; [17]
  Synergy or antagonism of second agent with tazemetostat (IC50 shift of second agent): A (Antagonism)
OVSAHO; 4+3 model
  Synergy or antagonism of second agent with tazemetostat (IC50 shift of second agent): A (Antagonism)
BT-20; [17]
  Synergy or antagonism of second agent with tazemetostat (IC50 shift of second agent): C (Synergy > 2× IC50 shift)
MDA-MB-175VII; [18]
  Synergy or antagonism of second agent with tazemetostat (IC50 shift of second agent): A (Antagonism)
OVISE [13]
  Synergy or antagonism of second agent with tazemetostat (IC50 shift of second agent): A (key: B: Synergy > 4× IC50 shift; Synergy > 2× IC50 shift; No Effect; Antagonism; X: Not Tested)
BT474; [18]
  Synergy or antagonism of second agent with tazemetostat (IC50 shift of second agent): A (Antagonism)
ZR-75-1 [14]
  Synergy or antagonism of second agent with tazemetostat (IC50 shift of second agent): A (key: B: Synergy > 4× IC50 shift; Synergy > 2× IC50 shift; No Effect; Antagonism; X: Not Tested)
COV644*; COV644*, 7+3 model
  Synergy or antagonism of second agent with tazemetostat (IC50 shift of second agent): A (Antagonism)
MDA-MB-231; [17]
  Synergy or antagonism of second agent with tazemetostat (IC50 shift of second agent): A (Antagonism)
TOV112D [15]
  Synergy or antagonism of second agent with tazemetostat (IC50 shift of second agent): A (key: B: Synergy > 4× IC50 shift; Synergy > 2× IC50 shift; No Effect; Antagonism; X: Not Tested)
HCC1143 [16]
  Synergy or antagonism of second agent with tazemetostat (IC50 shift of second agent): A (key: B: Synergy > 4× IC50 shift; Synergy > 2× IC50 shift; No Effect; Antagonism; X: Not Tested)
HCC1937; ER/PR −/−, HER2 +, 7 day pre-treatment + 6 day co-treatment
  Synergy or antagonism of second agent with tazemetostat (IC50 shift of second agent): A (Antagonism)
SUM52PE; [17]
  Synergy or antagonism of second agent with tazemetostat (IC50 shift of second agent): A (Antagonism)
